Source: patent US20050042283A1, “Histamine and CCK2/gastrin receptor blockade in the treatment of acid-peptic disease and cancer” (UNIVERSITY OF MASSACHUSETTS, priority 2003, published 2005)

Legend:
[1] = tested on: H. felis-infected INS-GAS mice; test: Gastric mucosa histological evaluation and scoring; assay type: in vivo; conditions: omeprazole study, 3 months; scale 0 to 4; n = 4
From the text: The insulin-gastrin (INS-GAS) transgenic mice (FVB/N background) have been described previously (Wang, T. C. et al., 2000; Wang T. C. et al., 1993) and were free of specific pathogens. Animals were housed in microisolator, solid-bottomed polycarbonate cages, fed a commercially prepared pelleted diet, and given water ad libitum. One hundred twenty four (124) male INS-GAS mice at 2 or 3 months of age were inoculated with Helicobacter felis (ATCC 49179) as previously described (Wang, T. C. et al., 2000). Infection status was confirmed at 14 weeks and 26 weeks post inoculation by enzyme-linked immunosorbent assay (ELISA) to measure immunoglobulin IgG antibody to H. felis, and by quantitative real-time PCR assays of gastric corpus tissue at necropsy as described below. All experiments were approved by the Institutional Animal Care and Use Committee of University of Massachusetts Medical School.
Mice in group III were treated orally with the histamine H2 receptor antagonist loxtidine (in drinking water) at a dose of 0.5 g/L, while group IV mice received both drugs. For the 3 months drug study of inhibitory effects on maximal acid secretion, gastric atrophy, hyperplasia and dysplasia, 8 mice were prepared for each group. For the 6 months drug study of inhibitory effects on gastric carcinogenesis, 17 mice were prepared for each group.
The proton pump inhibitor omeprazole was purchased from Sigma (St. Louis Mo.) and dissolved in dimethylsulfoxide (DMSO)/PEG300, a 1:1 mixture at the concentration of 40 mg/ml, and injected intraperitoneally daily at the dose of […] (=350 micromole/kg) for 3 months. Twenty four (24) mice were divided into four groups. Mice in group A were controls treated with vehicle only, whereas group B mice were treated with omeprazole alone. Group C and D mice were treated with combination of omeprazole and YF476 or loxtidine, respectively.
At necropsy, linear strips extending from the squamocolumnar junction through the proximal duodenum were fixed in 10% neutral-buffered formalin, paraffin-embedded, cut at 5 microns, and stained with hematoxylin and eosin. Indices of injury in the gastric cardia/corpus and antrum were scored on an ordinal scale from 0 to 4 in increments of 0.5 by a single veterinary pathologist (A.B.R.) blinded to treatment groups. Paraffin-embedded sections were also stained with the Warthin-Starry silver staining method for detection of H.felis as previously described (Fox, J. G. et al., 2003).

[2] = tested on: ECL cell; conditions: rats; Poynter et al.; cited from earlier work
[3] = biological target: T1, CCK-B (Rattus norvegicus, UniProt P30553); conditions: reportedly; Lindstrom et al 1999; cited from earlier work
T1 sequence (P30553 1-452): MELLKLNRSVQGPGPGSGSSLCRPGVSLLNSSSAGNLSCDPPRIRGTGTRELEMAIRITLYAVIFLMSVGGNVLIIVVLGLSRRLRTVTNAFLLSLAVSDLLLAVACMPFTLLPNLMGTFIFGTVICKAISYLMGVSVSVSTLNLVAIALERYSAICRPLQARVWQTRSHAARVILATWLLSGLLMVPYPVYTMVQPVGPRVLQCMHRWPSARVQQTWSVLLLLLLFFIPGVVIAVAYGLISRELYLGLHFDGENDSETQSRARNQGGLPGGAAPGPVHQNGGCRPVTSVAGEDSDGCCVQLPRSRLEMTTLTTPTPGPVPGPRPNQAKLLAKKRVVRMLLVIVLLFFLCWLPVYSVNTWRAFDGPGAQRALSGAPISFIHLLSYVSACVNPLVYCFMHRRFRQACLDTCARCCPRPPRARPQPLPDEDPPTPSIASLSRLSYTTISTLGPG

Structure (SMILES) | Corpus histological score: Atrophy [1] | Corpus histological score: Dysplasia [1] | Corpus histological score: Hyperplasia [1] | Corpus histological score: Inflammation [1] [a] | Duration of administration after which ECL cell hyperplasia was seen [2] [days] | Potency relative to YF476 [3]
COc1ccc2[nH]c([S+]([O-])Cc3ncc(C)c(OC)c3C)nc2c1 (stereo not drawn) [Omeprazole alone] | 3.13 ± 0.25 | 1.38 ± 0.48 | 2.75 ± 0.50 | 1.88 ± 0.63 | 28 | –
Cc1cccc(NC(=O)N[C@@H]2N=C(c3ccccc3)c3ccccc3N(CC(=O)c3ccccc3C)C2=O)c1 [YM022] | – | – | – | – | – | about 5 times
